In publication PMC12040169 (PLOS Biology, 2025):

Assay: in vitro
Conditions: human, hela cells, % viability

Compound	viability at 28.5 h, 10 µM	viability at 28.5 h, 10 µM (bulk resorufin, single well)
O=C(CSCc1ccc(Br)cc1)Nc1cccnc1 [CBK268543]	104%	
COC(=O)C1CC(O)CN1S(=O)(=O)c1cccs1 (stereo not drawn) [CBK086668]	87%	
COc1ccc(-c2cc(C(=O)Nc3cccc(C(=O)O)c3)cnc2-c2ccc(F)cc2)cn1 [CBK038064]	91.3%	
FC(F)(F)c1ccnc(OC2CCNC2)n1 (stereo not drawn) [CBK113296]	92.1%	
COCCCn1c(=O)[nH]c2ncc(-c3ccc(C(=O)N4CCOCC4)cc3)nc21 [CBK064366]	97.8%	
C/C(=N\NC(=N)SC1CC(=O)N(c2ccc(C(=O)O)cc2)C1=O)c1cccs1 (stereo not drawn) [CBK262471]	103%	
Cc1ccccc1NC(=O)Cn1c(=O)n(CC(=O)Nc2ccccc2C)c2ccccc21 [CBK266938]	101%	
Oc1ccc(Nc2ccnc3cc(Cl)ccc23)cc1 [CBK012365C]	93.5%	
CC(=O)NC(Cc1c[nH]cn1)C(=O)O (stereo not drawn) [CBK261105]	101%	
O=C(NCc1ccccc1)c1ccc(N2CCOCC2)nc1 [CBK200244]	96.3%	
CS(=O)(=O)N1C[C@@H]2CCCCN(Cc3cccc(F)c3F)[C@@H]2C1 [CBK285513]	95.6%	
O=C(Cn1c(=O)c2nncn2c2ncccc21)NC1CCCCCC1 [CBK288600]	92.3%	
CC(C)Cc1ccc(-c2cc(NCCc3ccccn3)ncn2)cc1 [CBK091088]	99.6%	
Cc1csc2ncnc(NCCc3ccccn3)c12 [CBK017060]	67.1%	
CCOc1ccccc1OCCCOc1ccc(C(=O)O)cc1 [CBK295144]	110%	
O=C(c1nccs1)C1CCN(C(=O)Cc2ccc(Cl)cc2)CC1 [CBK284160]	84.1%	
CN(C)CCN1CCN(c2nccnc2-c2cccc(CO)c2)CC1 [CBK037047]	94.7%	
Nc1ccccc1CC(c1c[nH]c2ccccc12)c1c[nH]c2ccccc12 [CBK261780]	103%	
Nc1nn2c(-c3cccc(Cl)c3)nnc2s1 [CBK288122]	73.2%	
O=C(O)CCC(=O)Nc1ccc(Sc2ccc([N+](=O)[O-])cc2)cc1 [CBK020438]	92.5%	
O=C1CC(c2ccccc2)n2nc(C(F)(F)F)nc2N1 (stereo not drawn) [CBK288063]	114%	
O=[N+]([O-])c1ccc(N2CCN(CCO)CC2)cc1NCc1ccccc1 [CBK042200]	99.9%	
COCCNc1nc(-c2cc(C(C)C)ccc2OC)ccc1C(=O)Nc1cccc(OC)c1 [CBK105904]	96.9%	

Compound	viability at 28.5 h, 10 µM	viability at 28.5 h, 10 µM (bulk resorufin, single well)
Cc1ccc(CC(=O)N2CCC(Cc3ccccc3-c3ccccc3)(C(N)=O)CC2)cc1 [CBK285740]	110%	
c1ncc(OC2CCN(CCN3CCOCC3)C2)nc1OCCN1CCOCC1 (stereo not drawn) [CBK084492]	97.6%	
O=C(O)c1cccc(NS(=O)(=O)c2cccc(Cl)c2Cl)c1 [CBK155686]	94.7%	
NC(=O)c1c(NC(=S)NC(=O)c2ccccc2Br)sc2c1CCC2 [CBK265543]	89.3%	
COc1ccc(-c2cc(N3CCN(CCN4CCCC4)CC3)ncn2)cc1OC [CBK091173]	94.5%	
COc1ccc2[nH]cc(CCNC(=O)[C@H](CC(C)C)NC(C)=O)c2c1 [CBK116210]	107%	
CCOC(=O)c1sc(NC(=O)c2ccccc2Br)nc1C [CBK067745]	90.2%	
O=S(=O)(Nc1ccccc1OC(F)(F)F)c1ccc(N2CCNCC2)c2ccccc12 [CBK003933C]	92.8%	
COc1cc(C(=O)N2CCCC3(CCN(C(=O)c4ccoc4)C3)C2)cc(OC)c1OC (stereo not drawn) [CBK131637]	114%	
O=C(NCCOc1ccccc1F)C1CC(=O)N(Cc2ccccn2)C1 (stereo not drawn) [CBK304632]	104%	
O=C(Cn1cc(Br)ccc1=O)NC1CCN(Cc2ccccn2)CC1 [CBK305686]	92.2%	
O=S(=O)(Nc1cccc(-c2cnco2)c1)c1ccc(Cl)c(Cl)c1 [CBK067117]	80.9%	
COc1ccc(C(=O)NC(CC(=O)O)c2ccc(OC)cc2)cc1 (stereo not drawn) [CBK266188]	101%	
CCCc1n[nH]c(-c2ccc(Cl)cc2Cl)c1C(=O)OCC [CBK113548]	107%	
CC(=O)Nc1cccc(CN(C)C(CCO)c2ccccc2)c1 (stereo not drawn) [CBK305127]	95.8%	
Cc1ccn2c(=O)c(C(=O)NCc3cccnc3N3CCOCC3)cnc2c1 [CBK298316]	86.1%	
CCN1CCCCC1CNC(=O)Cn1nc(C)cc1C (stereo not drawn) [CBK282057]	98.6%	
C/C(=N\Nc1cc(-c2ccccc2)nc(C)n1)c1ccc(O)cc1 [CBK261710]	87.9%	
CCN1CCN(c2nc(N)c3ccccc3n2)CC1 [CBK268561C]	82.4%	
CCOC(=O)c1c(C)nc(-c2ccccc2)nc1NC(=O)C(C)C [CBK028118]	90.1%	
COCCCNC(=O)COc1cc(C)ccc1C [CBK264625]	88.4%	
O=C1CCCN1CCCNc1ncnc2c1cnn2-c1ccc(Cl)cc1 [CBK265838]	97.1%	
Cc1nn(Cc2cccc3ccccc23)c(C)c1NC(=O)c1cccnc1 [CBK269946]	90.6%	

Compound	viability at 28.5 h, 10 µM	viability at 28.5 h, 10 µM (bulk resorufin, single well)
COc1ccccc1Cc1cccc(C2CCN(C(=O)Cc3ccccc3)CC2)n1 [CBK286240]	88.1%	
NC(=O)C1CCN(C2CC(=O)NC2=O)CC1 (stereo not drawn) [CBK263290]	90.3%	
Cn1cnc2cc(C(=O)N3CC(C(=O)N4CCN(c5ccccc5)CC4)C3)ccc21 [CBK285664]	82.5%	
O=C(Nc1ccccc1-c1ccccc1)C1CN(S(=O)(=O)c2ccccc2)CCN1S(=O)(=O)c1ccccc1 (stereo not drawn) [CBK265902]	91.1%	
CN(C)CCN1CCN(c2ccc(-c3ccsc3)cn2)CC1 [CBK036915]	96.2%	
O=C(/C=C/c1ccc2c(c1)OCO2)NCCSCc1c(F)cccc1Cl [CBK265239]	90.3%	
CCn1nc(-c2ccccc2)nc2c(=O)n(C)c(=O)nc1-2 [CBK000921]		92.1%
CC1(C)CC(N2CNC(=N)N(C#N)C2)CC(C)(C)N1 [CBK262008]	90.7%	
O=C(CSCCO)Nc1ccc(N2CCOCC2)cc1 [CBK269616]	89.7%	
CCN(CC)C(=O)C1CCCN(C(=O)NCCc2c[nH]c3ccccc23)C1 (stereo not drawn) [CBK156140]	99.8%	
CC1CN(Cc2cccc(CNc3ncccc3C#N)c2)CCO1 (stereo not drawn) [CBK303994]	95.7%	
CCc1noc(C)c1C(=O)Nc1cc(S(=O)(=O)N2CCCCC2)ccc1N(C)C [CBK295328]	85.4%	
Cc1ccc(S(=O)(=O)NCCSCc2ccc(Cl)c(Cl)c2)cc1[N+](=O)[O-] [CBK264675]	99.9%	
Cn1nccc1C(=O)N1CCCC(c2cc3ncccc3[nH]2)C1 (stereo not drawn) [CBK283413]	104%	
O=C1CC(=O)N(Cc2ccc(F)cc2)C(=O)N1 [CBK291156]	95.2%	
Cc1nn(C)cc1-c1cncn1C(C)(C)CN1CCC(C)CC1 [CBK281740]	108%	
CCc1cc2c(=O)c(-c3nc4ccccc4s3)coc2c(CN2CCCCC2)c1O [CBK262284]	86.1%	
COc1ccc(NC2c3cccc4cccc(c34)C2NS(=O)(=O)c2ccccc2)cc1 (stereo not drawn) [CBK264075]	97.4%	
CC1CCc2nn(CCNC(=O)C3CCCC3)c(=O)cc2C1 (stereo not drawn) [CBK284484]	91.1%	
Cc1ccc(S(=O)(=O)c2ccc(C)c(S(=O)(=O)N3CCOCC3)c2)cc1S(=O)(=O)N1CCOCC1 [CBK261677]	94.1%	
CC1C(=O)N(c2ccc(Cl)c(Cl)c2)C(=N)N1c1nc(N(C)C)nc(N(C)C)n1 (stereo not drawn) [CBK263182]	93.2%	
OC1(c2ccccc2)CCN(Cc2cncn2Cc2ccccc2)C1 (stereo not drawn) [CBK282809]	110%	
O=C(C1CCCCC1)N1CCCC1c1n[nH]cc1-c1ccncc1 (stereo not drawn) [CBK283434]	87.2%	

Compound	viability at 28.5 h, 10 µM	viability at 28.5 h, 10 µM (bulk resorufin, single well)
COC(=O)c1c(NC(=O)C2CC=CCC2C(=O)O)sc2c1CCC(c1ccccc1)C2 (stereo not drawn) [CBK263683]	94.8%	
COC(=O)c1c(NC(=O)CC2Nc3ccccc3NC2=O)sc2c1CCC2 (stereo not drawn) [CBK269307A]	93.7%	
OCCN1CCN(c2nccnc2-c2cccs2)CC1 [CBK088811]	106%	
CC(CCCC(C)(C)O)Nc1cncc(-c2cccc(Cl)c2)n1 (stereo not drawn) [CBK037857]	90.1%	
CCOc1ccc(S(=O)(=O)N2CCC(C(=O)N3CCOCC3)CC2)cc1Cl [CBK270288]	93.8%	
O=S(=O)(NC1CCCCC1Oc1ccccc1)c1ccc(Cl)cc1 (stereo not drawn) [CBK264697]	114%	
O=C(O)CCN1CCN(Cc2ccc(Cl)cc2)CC1 [CBK287271]	87.5%	
COc1cnc(-c2cc(Cl)cc(Cl)c2)c(NC(C)=O)n1 [CBK145333]	105%	
O=C(c1cccs1)N1CCC(n2c(=O)oc3ccccc32)CC1 [CBK284347]	88.2%	
Cc1ccc(CCC(=O)NNc2ccccc2)o1 [CBK260924]	90.5%	
COCCn1c(SC(C)C(=O)N2CCOCC2)nc2cc(Cl)ccc21 (stereo not drawn) [CBK305580]	94.8%	
COc1ccccc1-c1cnc(N)c(N[C@@H](C)c2ccccc2)n1 [CBK063721]	107%	
CN1Cc2ccccc2OC2(CCCN(C(=O)C3CC3)CC2)C1 (stereo not drawn) [CBK285131]	110%	
O=C(Cn1cncn1)N[C@H]1C2CCCCC2[C@@H]1c1ccccc1 (stereo partly drawn) [CBK283011]	93.3%	
Cc1nonc1OCCN1CCN(c2cc3c(cc2[N+](=O)[O-])n(C)c(=O)n3C)CC1 [CBK267676]	104%	
Cc1cccc(OCC(=O)Nc2ccc(-c3nc4ncccc4o3)cc2C)c1 [CBK269287]	87.3%	
O=C1OCc2ccc(NS(=O)(=O)c3ccc(OC(F)(F)F)cc3)cc21 [CBK043715]	82.8%	
CCc1c(C)nc2c(C(=O)NCCCN3CCCC3=O)cnn2c1C [CBK162128]	96.2%	
Cc1cccc(N/C=C(/C#N)c2nc(-c3ccc4c(c3)OCO4)cs2)c1C [CBK263013]	96.4%	
O=C(NCCc1ccccc1)C1CCN(C(=O)c2cccc(F)c2)CC1 [CBK307583]	82.2%	
O=C(CCn1cnc2ccccc2c1=O)Nc1ccc(S(=O)(=O)N2CCOCC2)cc1 [CBK267645]	98.9%	
